This test has as its target T1, human liver glycogen phosphorylase a (HLGPa) (Homo sapiens, UniProt P06737).
T1 construct: creating a full-length cDNA fused at the 5′ end to codons for methionine-glycine-alanine-histidine; 6xHis tag (leader Met-Gly-Ala-His6-Gly-Gly) (N); made in house; host or cells: E. coli (bacterial expression plasmid pTXK1007LTev)
T1 sequence (P06737 2-847 limits assumed): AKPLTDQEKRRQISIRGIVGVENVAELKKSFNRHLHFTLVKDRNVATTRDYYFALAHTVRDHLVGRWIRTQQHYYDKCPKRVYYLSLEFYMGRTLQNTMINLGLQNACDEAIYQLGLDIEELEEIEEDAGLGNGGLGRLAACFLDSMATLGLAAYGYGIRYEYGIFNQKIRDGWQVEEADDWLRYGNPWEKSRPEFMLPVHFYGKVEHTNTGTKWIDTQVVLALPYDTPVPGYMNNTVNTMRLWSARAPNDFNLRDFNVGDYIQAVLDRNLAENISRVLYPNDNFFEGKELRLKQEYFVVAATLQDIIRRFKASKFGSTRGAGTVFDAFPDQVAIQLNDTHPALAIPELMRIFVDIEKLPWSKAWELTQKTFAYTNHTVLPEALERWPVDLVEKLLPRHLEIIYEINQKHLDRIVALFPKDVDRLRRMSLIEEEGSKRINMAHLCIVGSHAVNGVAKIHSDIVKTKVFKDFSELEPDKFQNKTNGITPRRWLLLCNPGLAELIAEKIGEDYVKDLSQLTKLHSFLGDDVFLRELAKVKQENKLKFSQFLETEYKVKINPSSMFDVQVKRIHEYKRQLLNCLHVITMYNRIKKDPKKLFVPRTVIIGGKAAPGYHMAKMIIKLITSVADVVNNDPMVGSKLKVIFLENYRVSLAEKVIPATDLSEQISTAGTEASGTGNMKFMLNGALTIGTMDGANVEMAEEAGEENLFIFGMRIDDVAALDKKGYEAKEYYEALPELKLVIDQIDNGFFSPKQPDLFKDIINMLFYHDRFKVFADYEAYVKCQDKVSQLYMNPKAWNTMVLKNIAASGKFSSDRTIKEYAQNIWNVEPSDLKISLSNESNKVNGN
The test can be described thus: Human liver glycogen phosphorylase a enzymatic activity assay (coupled, fluorescent resorufin readout, with and without 10 mM glucose). Format: biochemical.

Where [1] appears, read: human liver glycogen phosphorylase a enzymatic activity assay.
Setting [2] is: human liver glycogen phosphorylase a, table does not say whether with or without 10 mM glucose.

Take `Cc1cc(C)c(NC(=O)Nc2cc(Cl)ccc2C(=O)N[C@H](C(=O)O)C2CCCCC2)c(C)c1` [Example 179, (2S)-({[4-Chloro-2-({[(2,4,6-trimethylphenyl)amino]carbonyl}-amino)phenyl]carbonyl}amino)(cyclohexyl)ethanoic acid]: the midpoint of inhibition under setting [1], the IC50, lay at 35 nM. On the same count and under the same terms, next, `Cc1cccc(C)c1NC(=O)Nc1cc(Cl)c(Cl)cc1C(=O)N[C@H](C(=O)O)C1CCCCC1` [Example 180, (2S)-Cyclohexyl({[4,5-dichloro-2-({[(2,6-dimethylphenyl)amino]carbonyl}amino)phenyl]carbonyl}amino)ethanoic acid]: 94 nM. The same measure, in the same setting: to `Cc1cccc(C)c1NC(=O)Nc1cc(-c2cccnc2)ccc1C(=O)N[C@H](C(=O)O)C1CCCCC1` [Example 181, (2S)-Cyclohexyl({[2-({[(2,6-dimethylphenyl)amino]carbonyl}amino)-4-(3-pyridinyl)phenyl]carbonyl}amino)ethanoic acid] belongs 99 nM; to `Cc1cc(C)c(NC(=O)Nc2cc(-c3ccccc3)ccc2C(=O)N[C@H](C(=O)O)C2CCCCC2)c(C)c1` [Example 182, (2S)-Cyclohexyl({[3-({[(2,4,6-trimethylphenyl)amino]carbonyl}-amino)-4-biphenylyl]carbonyl}amino)ethanoic acid], 17 nM; to `Cc1cccc(C)c1NC(=O)Nc1cc(-c2cccs2)ccc1C(=O)N[C@H](C(=O)O)C1CCCCC1` [Example 183, (2S)-Cyclohexyl({[2-({[(2,6-dimethylphenyl)amino]carbonyl}amino)-4-(2-thienyl)phenyl]carbonyl}amino)ethanoic acid], 100 nM. Still for that read-out and setting: next, `Cc1cccc(C)c1NC(=O)Nc1cc(-c2ccsc2)ccc1C(=O)N[C@H](C(=O)O)C1CCCCC1` [Example 184, (2S)-Cyclohexyl({[2-({[(2,6-dimethylphenyl)amino]carbonyl}amino)-4-(3-thienyl)phenyl]carbonyl}amino)ethanoic acid]: 220 nM; `Cc1cccc(C)c1NC(=O)Nc1cc(-c2ccncc2)ccc1C(=O)N[C@H](C(=O)O)C1CCCCC1` [Example 185, (2S)-Cyclohexyl({[2-({[(2,6-dimethylphenyl)amino]carbonyl}amino)-4-(4-pyridinyl)phenyl]carbonyl}amino)ethanoic acid]: 170 nM; `O=C(Cc1c(Cl)cc(Cl)cc1Cl)Nc1cc(-c2ccccc2)ccc1C(=O)N[C@H](C(=O)O)C1CCCCC1` [Example 186, (2S)-Cyclohexyl{[(3-{[(2,4,6-trichlorophenyl)acetyl]amino}-4-biphenylyl)carbonyl]amino}ethanoic acid]: 341 nM. As for `Cc1cccc(C)c1NC(=O)Nc1cc(-c2ccc(O)cc2)ccc1C(=O)N[C@H](C(=O)O)C1CCCCC1` [Example 187, (2S)-Cyclohexyl({[3-({[(2,6-dimethylphenyl)amino]carbonyl}amino)-4′-hydroxy-4-biphenylyl]carbonyl}amino)ethanoic acid], the IC50 (as a rule, the midpoint of a concentration-inhibition curve) under setting [1] came to 34 nM.

As to `Cc1cccc(C)c1NC(=O)Nc1cc(-c2ccc(F)c(F)c2)ccc1C(=O)N[C@H](C(=O)O)C1CCCCC1` [Example 188, (2S)-Cyclohexyl({[3-({[(2,6-dimethylphenyl)amino]carbonyl}amino)-3′,4′-difluoro-4-biphenylyl]carbonyl}amino)ethanoic acid], it took 74 nM to reach half-maximal inhibition under setting [1] (IC50). Under setting [1], `Cc1cccc(C)c1NC(=O)Nc1cc(-c2cncnc2)ccc1C(=O)N[C@H](C(=O)O)C1CCCCC1` [Example 189, (2S)-Cyclohexyl({[2-({[(2,6-dimethylphenyl)amino]carbonyl}amino)-4-(5-pyrimidinyl)phenyl]carbonyl}amino)ethanoic acid] came in with an IC50 of 330 nM. Still for that read-out and setting: to `Cc1cccc(C)c1NC(=O)Nc1cc(F)ccc1C(=O)N[C@H](C(=O)O)C1CCCCC1` [Example 190, (2S)-Cyclohexyl({[2-({[(2,6-dimethylphenyl)amino]carbonyl}amino)-4-fluorophenyl]carbonyl}amino)ethanoic acid] belongs 700 nM; to `COc1ccc(-c2ccc(C(=O)N[C@H](C(=O)O)C3CCCCC3)c(NC(=O)Nc3c(C)cccc3C)c2)cc1` [Example 191, (2S)-Cyclohexyl({[3-({[(2,6-dimethylphenyl)amino]carbonyl}amino)-4′-(methyloxy)-4-biphenylyl]carbonyl}amino)ethanoic acid], 32 nM; to `Cc1cc(C)c(NC(=O)Nc2cc(F)ccc2C(=O)N[C@H](C(=O)O)C2CCCCC2)c(C)c1` [Example 192, (2S)-Cyclohexyl({[4-fluoro-2-({[(2,4,6-trimethylphenyl)amino]carbonyl}amino)phenyl]carbonyl}amino)ethanoic acid], 120 nM. The same measure, in the same setting: to `COc1ccc(-c2ccc(C(=O)N[C@H](C(=O)O)C3CCCCC3)c(NC(=O)Nc3c(C)cc(C)cc3C)c2)cc1` [Example 193, (2S)-Cyclohexyl({[4′-(methyloxy)-3-({[(2,4,6-trimethylphenyl)amino]carbonyl}amino)-4-biphenylyl]carbonyl}amino)ethanoic acid] belongs 7 nM. In the case of `Cc1cc(C)c(NC(=O)Nc2cc(-c3ccc(O)cc3)ccc2C(=O)N[C@H](C(=O)O)C2CCCCC2)c(C)c1` [Example 194, (2S)-Cyclohexyl({[4′-hydroxy-3-({[(2,4,6-trimethylphenyl)amino]carbonyl}amino)-4-biphenylyl]carbonyl}amino)ethanoic acid], half-maximal inhibition under setting [1] (IC50) was put at 11 nM. Compound `Cc1cc(C)c(NC(=O)Nc2cc([N+](=O)[O-])ccc2C(=O)N[C@H](C(=O)O)C2CCCCC2)c(C)c1` [Example 195, (2S)-Cyclohexyl({[4-nitro-2-({[(2,4,6-trimethylphenyl)amino]carbonyl}amino)phenyl]carbonyl}amino)ethanoic acid] registered an IC50 under setting [1] of 550 nM. In the case of `Cc1cc(C)c(NC(=O)Nc2cc(N)ccc2C(=O)N[C@H](C(=O)O)C2CCCCC2)c(C)c1` [Example 196, (2S)-({[4-Amino-2-({[(2,4,6-trimethylphenyl)amino]carbonyl}-amino)phenyl]carbonyl}amino)(cyclohexyl)ethanoic acid], the IC50 under setting [1] was 110 nM. Compound `Cc1cc(C)c(NC(=O)Nc2cc(-c3ccc([N+](=O)[O-])cc3)ccc2C(=O)N[C@H](C(=O)O)C2CCCCC2)c(C)c1` [Example 197, (2S)-Cyclohexyl({[4′-nitro-3-({[(2,4,6-trimethylphenyl)amino]carbonyl}amino)-4-biphenylyl]carbonyl}amino)ethanoic acid] had an IC50 under setting [1] of 14 nM. As to `Cc1cc(C)c(NC(=O)Nc2cc(-c3ccc(CO)cc3)ccc2C(=O)N[C@H](C(=O)O)C2CCCCC2)c(C)c1` [Example 198, (2S)-Cyclohexyl({[4′-(hydroxymethyl)-3-({[(2,4,6-trimethylphenyl)amino]carbonyl}amino)-4-biphenylyl]carbonyl}amino)ethanoic acid], half-maximal inhibition under setting [1] (IC50) required 27 nM.

Take `Cc1cc(C)c(NC(=O)Nc2cc(-c3ccc(N)cc3)ccc2C(=O)N[C@H](C(=O)O)C2CCCCC2)c(C)c1` [Example 199, (2S)-({[4′-Amino-3-({[(2,4,6-trimethylphenyl)amino]carbonyl}amino)-4-biphenylyl]carbonyl}amino)(cyclohexyl)ethanoic acid]: the IC50 under setting [2] stood at 4 nM.

On to `O=C(Nc1cc(-c2ccccc2)ccc1C(=O)N[C@H](C(=O)O)C1CCCCC1)Nc1c(Cl)cc(Cl)cc1Cl` [Example 200, (2S)-Cyclohexyl({[3-({[(2,4,6-trichlorophenyl)amino]carbonyl}amino)-4-biphenylyl]carbonyl}amino)ethanoic acid], for which the IC50 under setting [2] is 130 nM.

Under setting [2], `COc1ccc(-c2ccc(C(=O)N[C@H](C(=O)O)C(C)(C)C)c(NC(=O)Nc3c(Cl)cc(Cl)cc3Cl)c2)cc1` [Example 201, 3-Methyl-N-{[4′-(methyloxy)-3-({[(2,4,6-trichlorophenyl)amino]carbonyl}amino)-4-biphenylyl]carbonyl}-L-valine] gave an IC50 of 670 nM. `COc1ccc(-c2ccc(C(=O)N[C@H](C(=O)O)C(C)(C)C)c(NC(=O)Nc3c(C)cc(C)cc3C)c2)cc1` [Example 202, 3-Methyl-N-{[4′-(methyloxy)-3-({[(2,4,6-trimethylphenyl)amino]carbonyl}amino)-4-biphenylyl]carbonyl}-L-valine]: under setting [2], the IC50 is 140 nM.

On to `O=C(Nc1cc(-c2ccccc2)ccc1C(=O)N[C@H](C(=O)O)C1CCCCC1)Nc1c(Cl)cccc1Cl` [Example 203, (2S)-Cyclohexyl({[3-({[(2,6-dichlorophenyl)amino]carbonyl}amino)-4-biphenylyl]carbonyl}amino)ethanoic acid], for which, under setting [2], the IC50 is 75 nM.

(Values after patent US20070249670A1, “Glycogen Phosphorylase Inhibitor Compounds and Pharmaceutical Compositions Thereof” (SMITHKLINE BEECHAM CORPORATION, priority 2004, published 2007).)
